According to ChEMBL document CHEMBL5108067, “Discovery of Potent OTUB1/USP8 Dual Inhibitors Targeting Proteostasis in Non-Small-Cell Lung Cancer” (J Med Chem, 2022):

target: T1, Ubiquitin carboxyl-terminal hydrolase 1 (Homo sapiens, UniProt O94782); test: Inhibition of USP1 (unknown origin) using Ub-Rho measured after 0.5 to 3 hrs; conditions: not given
T1 sequence (O94782 whole entry): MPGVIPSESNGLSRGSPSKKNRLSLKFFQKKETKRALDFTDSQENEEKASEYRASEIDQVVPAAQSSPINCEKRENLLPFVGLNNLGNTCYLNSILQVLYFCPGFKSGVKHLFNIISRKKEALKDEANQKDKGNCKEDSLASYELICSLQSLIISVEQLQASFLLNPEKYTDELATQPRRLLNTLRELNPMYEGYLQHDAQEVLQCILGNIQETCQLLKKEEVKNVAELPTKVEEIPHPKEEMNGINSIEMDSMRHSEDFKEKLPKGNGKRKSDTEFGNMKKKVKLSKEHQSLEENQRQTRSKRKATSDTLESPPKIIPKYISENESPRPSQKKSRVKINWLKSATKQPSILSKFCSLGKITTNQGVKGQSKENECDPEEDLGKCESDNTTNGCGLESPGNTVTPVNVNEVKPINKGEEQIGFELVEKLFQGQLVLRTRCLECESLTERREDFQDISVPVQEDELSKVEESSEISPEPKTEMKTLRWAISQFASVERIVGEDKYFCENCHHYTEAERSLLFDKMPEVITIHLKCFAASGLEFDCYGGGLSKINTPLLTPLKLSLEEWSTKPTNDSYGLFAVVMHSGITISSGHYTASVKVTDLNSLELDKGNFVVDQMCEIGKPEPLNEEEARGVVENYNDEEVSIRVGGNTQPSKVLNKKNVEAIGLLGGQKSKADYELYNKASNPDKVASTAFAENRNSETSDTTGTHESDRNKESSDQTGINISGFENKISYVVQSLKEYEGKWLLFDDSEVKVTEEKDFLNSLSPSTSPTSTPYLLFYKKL

IC50 | Compound
1900 nM | CN1CC[C@@H](Oc2ccc(Cl)c(-c3nc4c(o3)C(=O)c3ccccc3C4=O)c2)C1
990 nM | O=C1c2ccccc2C(=O)c2oc(-c3cccnc3)nc21
1370 nM | CN1CC[C@@H](Oc2ccc(F)c(-c3nc4c(o3)C(=O)c3ccccc3C4=O)c2Cl)C1
2100 nM | CN1CC[C@@H](Oc2ccc(Cl)c(-c3nc4c(o3)C(=O)c3ccccc3C4=O)c2F)C1

target: T2, Ubiquitin carboxyl-terminal hydrolase 2 (Homo sapiens, UniProt O75604); test: Inhibition of USP2 (unknown origin) using Ub-Rho measured after 0.5 to 3 hrs; conditions: not given
T2 sequence (O75604 whole entry): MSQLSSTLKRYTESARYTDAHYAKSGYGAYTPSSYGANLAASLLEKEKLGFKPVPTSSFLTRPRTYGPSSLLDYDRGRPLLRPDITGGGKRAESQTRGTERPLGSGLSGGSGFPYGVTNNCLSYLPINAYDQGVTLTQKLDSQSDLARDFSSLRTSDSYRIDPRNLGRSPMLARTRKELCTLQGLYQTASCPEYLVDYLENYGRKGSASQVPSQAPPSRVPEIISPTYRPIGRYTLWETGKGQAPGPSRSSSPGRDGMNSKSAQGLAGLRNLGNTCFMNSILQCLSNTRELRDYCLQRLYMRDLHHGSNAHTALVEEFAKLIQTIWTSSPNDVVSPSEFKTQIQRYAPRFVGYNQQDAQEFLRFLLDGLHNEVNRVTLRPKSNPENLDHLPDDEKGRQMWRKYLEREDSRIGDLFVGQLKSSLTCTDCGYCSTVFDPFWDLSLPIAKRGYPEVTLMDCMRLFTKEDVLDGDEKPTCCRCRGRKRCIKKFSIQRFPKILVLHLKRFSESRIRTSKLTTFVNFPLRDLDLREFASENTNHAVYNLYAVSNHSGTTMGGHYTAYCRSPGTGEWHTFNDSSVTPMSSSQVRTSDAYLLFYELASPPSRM

IC50 | Compound
6200 nM | CN1CC[C@@H](Oc2ccc(Cl)c(-c3nc4c(o3)C(=O)c3ccccc3C4=O)c2)C1
5100 nM | O=C1c2ccccc2C(=O)c2oc(-c3cccnc3)nc21
3800 nM | CN1CC[C@@H](Oc2ccc(F)c(-c3nc4c(o3)C(=O)c3ccccc3C4=O)c2Cl)C1
> 10000 nM | CN1CC[C@@H](Oc2ccc(Cl)c(-c3nc4c(o3)C(=O)c3ccccc3C4=O)c2F)C1

target: T3, Ubiquitin carboxyl-terminal hydrolase 36 (Homo sapiens, UniProt Q9P275); test: Inhibition of USP36 (unknown origin) using Ub-Rho measured after 0.5 to 3 hrs; conditions: not given
T3 sequence (Q9P275 whole entry): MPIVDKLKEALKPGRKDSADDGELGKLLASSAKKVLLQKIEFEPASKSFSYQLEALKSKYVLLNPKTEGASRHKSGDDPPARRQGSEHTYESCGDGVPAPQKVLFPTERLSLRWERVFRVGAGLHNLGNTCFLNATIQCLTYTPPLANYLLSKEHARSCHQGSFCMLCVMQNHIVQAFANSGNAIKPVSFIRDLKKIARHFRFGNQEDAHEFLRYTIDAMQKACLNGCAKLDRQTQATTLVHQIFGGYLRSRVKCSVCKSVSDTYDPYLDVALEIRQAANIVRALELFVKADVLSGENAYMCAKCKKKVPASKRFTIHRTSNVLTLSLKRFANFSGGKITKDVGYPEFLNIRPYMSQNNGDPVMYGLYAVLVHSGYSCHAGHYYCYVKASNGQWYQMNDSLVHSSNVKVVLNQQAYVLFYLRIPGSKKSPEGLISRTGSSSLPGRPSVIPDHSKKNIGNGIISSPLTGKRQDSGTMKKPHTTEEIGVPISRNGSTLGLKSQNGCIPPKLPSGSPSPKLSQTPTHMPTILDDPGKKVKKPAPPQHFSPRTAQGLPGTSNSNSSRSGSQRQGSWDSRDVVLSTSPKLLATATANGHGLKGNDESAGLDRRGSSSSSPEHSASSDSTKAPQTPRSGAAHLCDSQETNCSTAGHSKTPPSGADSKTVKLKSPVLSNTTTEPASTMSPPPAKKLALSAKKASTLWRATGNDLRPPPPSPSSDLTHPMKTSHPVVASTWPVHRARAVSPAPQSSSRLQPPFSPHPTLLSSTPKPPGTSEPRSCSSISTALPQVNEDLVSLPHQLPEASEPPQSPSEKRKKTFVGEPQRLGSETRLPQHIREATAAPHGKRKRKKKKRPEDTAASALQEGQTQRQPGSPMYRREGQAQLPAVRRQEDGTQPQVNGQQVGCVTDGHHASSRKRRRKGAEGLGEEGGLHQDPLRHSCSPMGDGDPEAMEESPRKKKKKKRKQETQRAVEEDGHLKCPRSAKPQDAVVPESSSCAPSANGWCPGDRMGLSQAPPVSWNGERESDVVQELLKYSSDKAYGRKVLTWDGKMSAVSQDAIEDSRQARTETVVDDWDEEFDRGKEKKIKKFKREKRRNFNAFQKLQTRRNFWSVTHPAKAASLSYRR

IC50 | Compound
> 10000 nM | CN1CC[C@@H](Oc2ccc(Cl)c(-c3nc4c(o3)C(=O)c3ccccc3C4=O)c2)C1
3900 nM | O=C1c2ccccc2C(=O)c2oc(-c3cccnc3)nc21
8400 nM | CN1CC[C@@H](Oc2ccc(F)c(-c3nc4c(o3)C(=O)c3ccccc3C4=O)c2Cl)C1
7200 nM | CN1CC[C@@H](Oc2ccc(Cl)c(-c3nc4c(o3)C(=O)c3ccccc3C4=O)c2F)C1

test system: A549; test: Antiproliferative activity against human A549 cells harboring KRAS mutant incubated for 72 hrs by MTT assay; format: functional, cell-based; conditions: A549, 72 h

IC50 | Compound
701 nM | CN1CC[C@@H](Oc2ccc(Cl)c(-c3nc4c(o3)C(=O)c3ccccc3C4=O)c2)C1
662 nM | O=C1c2ccccc2C(=O)c2oc(-c3cccnc3)nc21
1000 nM | CN1CC[C@@H](Oc2ccc(F)c(-c3nc4c(o3)C(=O)c3ccccc3C4=O)c2Cl)C1
1260 nM | CN1CC[C@@H](Oc2ccc(Cl)c(-c3nc4c(o3)C(=O)c3ccccc3C4=O)c2F)C1
